# Experimental data taken from ChEMBL document CHEMBL4507284, “Data for DCP probe BI-1230” (2021).
# Key:
# [1] = biological target: Alpha-2C adrenergic receptor (Homo sapiens, UniProt P18825); experiment: GPCRScan assay: inhibition of Alpha2C; set-up: radioligand conc. used [nm] 0.5 – 1.0, parental cells stable MDCK
# [2] = biological target: Muscarinic acetylcholine receptor M5 (Homo sapiens) (UniProt P08912); conditions: Compound concentration 10.0 uM
# [3] = biological target: Macrophage metalloelastase (Homo sapiens) (UniProt P39900); experiment: MMP-12 (h) Eurofins-Cerep enzyme and uptake assay; conditions: Compound concentration 10.0 uM
# [4] = biological target: Angiotensin-converting enzyme (Homo sapiens) (UniProt P12821); experiment: ACE (h) Eurofins-Cerep enzyme and uptake assay; conditions: Compound concentration 10.0 uM
# [5] = biological target: Beta-3 adrenergic receptor (Homo sapiens, UniProt P13945); experiment: GPCRScan assay: inhibition of Beta3; set-up: radioligand conc. used [nm] 0.2 – 0.5, parental cells HEK Flp-In
# Caspase-3 (Homo sapiens) = Caspase-3 (Homo sapiens) (UniProt P42574); experiment: Caspase-3 (h) Eurofins-Cerep enzyme and uptake assay; conditions: Compound concentration 10.0 uM
# [6] = biological target: Collagenase 3 (Homo sapiens) (UniProt P45452); experiment: MMP-13 (h) Eurofins-Cerep enzyme and uptake assay; conditions: Compound concentration 10.0 uM
# [7] = biological target: Matrix metalloproteinase-9 (Homo sapiens) (UniProt P14780); experiment: MMP-9 (h) Eurofins-Cerep enzyme and uptake assay; conditions: Compound concentration 10.0 uM
# [8] = biological target: Dipeptidyl peptidase 4 (Homo sapiens) (UniProt P27487); experiment: Dipeptidyl peptidase IV (h) (DPP-IV) Eurofins-Cerep enzyme and uptake assay; conditions: Compound concentration 10.0 uM
# [9] = biological target: Cathepsin E (Homo sapiens) (UniProt P14091); experiment: Cathepsin E Eurofins-Cerep enzyme and uptake assay; conditions: Mus musculus; Compound concentration 10.0 uM
# [10] = biological target: Prothrombin (Homo sapiens) (UniProt P00734); experiment: Thrombin(h) Eurofins-Cerep enzyme and uptake assay; conditions: Compound concentration 10.0 uM
# Caspase-6 (Homo sapiens) = Caspase-6 (Homo sapiens) (UniProt P55212); experiment: Caspase-6 (h) Eurofins-Cerep enzyme and uptake assay; conditions: Compound concentration 10.0 uM
# [11] = biological target: 72 kDa type IV collagenase (Homo sapiens) (UniProt P08253); experiment: MMP-2 (h) Eurofins-Cerep enzyme and uptake assay; conditions: Compound concentration 10.0 uM
# [12] = biological target: Procathepsin L (Homo sapiens) (UniProt P07711); experiment: Cathepsin L (h) Eurofins-Cerep enzyme and uptake assay; conditions: Compound concentration 10.0 uM
# [13] = biological target: Cathepsin Z (Homo sapiens) (UniProt Q9UBR2); experiment: Cathepsin X (h) Eurofins-Cerep enzyme and uptake assay; conditions: Compound concentration 10.0 uM
# Chymase (Homo sapiens) = Chymase (Homo sapiens) (UniProt P23946); experiment: Chymase (h) Eurofins-Cerep enzyme and uptake assay; conditions: Compound concentration 10.0 uM
# [14] = biological target: Beta-secretase 1 (Homo sapiens) (UniProt P56817); experiment: BACE-1 (h) (β-secretase) Eurofins-Cerep enzyme and uptake assay; conditions: Compound concentration 10.0 uM
# Caspase-8 (Homo sapiens) = Caspase-8 (Homo sapiens) (UniProt Q14790); experiment: Caspase-8 (h) Eurofins-Cerep enzyme and uptake assay; conditions: Compound concentration 10.0 uM
# [15] = biological target: Neutrophil collagenase (Homo sapiens) (UniProt P22894); experiment: MMP-8 (h) Eurofins-Cerep enzyme and uptake assay; conditions: Compound concentration 10.0 uM
# Caspase-2 (Homo sapiens) = Caspase-2 (Homo sapiens) (UniProt P42575); experiment: Caspase-2 (h) Eurofins-Cerep enzyme and uptake assay; conditions: Compound concentration 10.0 uM
# [16] = biological target: Proteinase-activated receptor 1 (Homo sapiens) (UniProt P25116); experiment: PAR1 (h) Eurofins-Cerep Cellular and Nuclear Receptor Functional Assays; conditions: Compound concentration 10.0 uM
# [17] = biological target: Kappa-type opioid receptor (Homo sapiens) (UniProt P41145); conditions: Compound concentration 10.0 uM
# [18] = biological target: Cathepsin G (Homo sapiens) (UniProt P08311); experiment: Cathepsin G (h) Eurofins-Cerep enzyme and uptake assay; conditions: Compound concentration 10.0 uM
# [19] = biological target: Alpha-2B adrenergic receptor (Homo sapiens, UniProt P18089); experiment: GPCRScan assay: inhibition of Alpha2B; set-up: radioligand conc. used [nm] 1.5 – 2.0, parental cells HEKT
# [20] = biological target: Protease (Human immunodeficiency virus 1) (UniProt Q9YQ12); experiment: HIV-1 protease Eurofins-Cerep enzyme and uptake assay; conditions: Compound concentration 10.0 uM
# Caspase-7 (Homo sapiens) = Caspase-7 (Homo sapiens) (UniProt P55210); experiment: Caspase-7 (h) Eurofins-Cerep enzyme and uptake assay; conditions: Compound concentration 10.0 uM
# [21] = biological target: Disintegrin and metalloproteinase domain-containing protein 17 (Homo sapiens) (UniProt P78536); experiment: TACE (h) Eurofins-Cerep enzyme and uptake assay; conditions: Compound concentration 10.0 uM
# [22] = biological target: Pro-cathepsin H (Homo sapiens) (UniProt P09668); experiment: Cathepsin H (h) Eurofins-Cerep enzyme and uptake assay; conditions: Compound concentration 10.0 uM
# [23] = biological target: Beta-1 adrenergic receptor (Homo sapiens) (UniProt P08588); conditions: Compound concentration 10.0 uM
# Tryptase (Homo sapiens) = Tryptase (Homo sapiens) (UniProt Q9BZJ3+Q15661+Q9NRR2); experiment: Tryptase (h) Eurofins-Cerep enzyme and uptake assay; assay type: protein assay; conditions: Compound concentration 10.0 uM
# [24] = biological target: Alpha-1D adrenergic receptor (Homo sapiens) (UniProt P25100); conditions: Compound concentration 10.0 uM
# Trypsin (Homo sapiens) = Trypsin (Homo sapiens) (UniProt P07477+P07478+P35030); experiment: Trypsin (h) Eurofins-Cerep enzyme and uptake assay; assay type: protein assay; conditions: Compound concentration 10.0 uM
# [25] = biological target: Cathepsin D (Homo sapiens) (UniProt P07339); experiment: Cathepsin D (h) Eurofins-Cerep enzyme and uptake assay; conditions: Compound concentration 10.0 uM
# [26] = biological target: 5-hydroxytryptamine receptor 1A (Homo sapiens) (UniProt P08908); conditions: Compound concentration 10.0 uM
# [27] = system: Tyrosine-protein kinase ABL1 (Homo sapiens), P00519 [F317I]; conditions: Compound concentration 1000.0 nM
# [28] = biological target: D(2) dopamine receptor (Homo sapiens) (UniProt P14416); conditions: Compound concentration 10.0 uM
# [29] = biological target: Cathepsin S (Homo sapiens) (UniProt P25774); experiment: Cathepsin S (h) Eurofins-Cerep enzyme and uptake assay; conditions: Compound concentration 10.0 uM
# [30] = biological target: Matrix metalloproteinase-14 (Homo sapiens) (UniProt P50281); experiment: MT1-MMP (h) (MMP-14) Eurofins-Cerep enzyme and uptake assay; conditions: Compound concentration 10.0 uM
# [31] = biological target: Angiotensin-converting enzyme 2 (Homo sapiens) (UniProt Q9BYF1); experiment: ACE-2 (h) Eurofins-Cerep enzyme and uptake assay; conditions: Compound concentration 10.0 uM
# [32] = biological target: Neutrophil elastase (Homo sapiens) (UniProt P08246); experiment: Elastase (h) Eurofins-Cerep enzyme and uptake assay; conditions: Compound concentration 10.0 uM
# [33] = biological target: Caspase-10 (Homo sapiens) (UniProt Q92851); experiment: Caspase-10 (h) Eurofins-Cerep enzyme and uptake assay; conditions: Compound concentration 10.0 uM
# [34] = biological target: 5-hydroxytryptamine receptor 3A (Homo sapiens) (UniProt P46098); conditions: Compound concentration 10.0 uM
# [35] = biological target: 5-hydroxytryptamine receptor 6 (Homo sapiens) (UniProt P50406); conditions: Compound concentration 10.0 uM
# [36] = biological target: GABA-A receptor; anion channel (Rattus norvegicus) (UniProt O09028+P15431+P18506+P18508+P19969+P20236+P23574+P23576+P28471+P28473+P30191+P62813+P63079+P63138+Q91ZM7+Q9ES14); conditions: Compound concentration 10.0 uM
# [37] = biological target: 5-hydroxytryptamine receptor 2C (Homo sapiens) (UniProt P28335); conditions: Compound concentration 10.0 uM
# [38] = biological target: Histamine H3 receptor (Homo sapiens) (UniProt Q9Y5N1); conditions: Compound concentration 10.0 uM
# [39] = biological target: Alpha-1B adrenergic receptor (Homo sapiens) (UniProt P35368); conditions: Compound concentration 10.0 uM
# Sequence of Alpha-1B adrenergic receptor (Homo sapiens) (P35368 whole entry): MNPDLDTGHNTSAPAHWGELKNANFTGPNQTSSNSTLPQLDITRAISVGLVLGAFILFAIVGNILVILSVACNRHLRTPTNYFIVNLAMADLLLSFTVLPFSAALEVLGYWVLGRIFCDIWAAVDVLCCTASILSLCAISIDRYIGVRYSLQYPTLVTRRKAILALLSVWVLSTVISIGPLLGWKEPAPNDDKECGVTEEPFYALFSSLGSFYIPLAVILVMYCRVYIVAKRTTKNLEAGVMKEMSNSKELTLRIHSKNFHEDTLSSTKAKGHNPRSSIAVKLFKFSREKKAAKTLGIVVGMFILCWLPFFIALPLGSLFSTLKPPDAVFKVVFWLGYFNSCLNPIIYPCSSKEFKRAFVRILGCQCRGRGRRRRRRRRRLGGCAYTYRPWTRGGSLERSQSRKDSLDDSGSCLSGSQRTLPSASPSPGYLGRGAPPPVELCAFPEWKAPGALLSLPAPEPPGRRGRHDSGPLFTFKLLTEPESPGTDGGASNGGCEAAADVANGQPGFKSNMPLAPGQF
# Sequence of Alpha-2C adrenergic receptor (P18825 whole entry): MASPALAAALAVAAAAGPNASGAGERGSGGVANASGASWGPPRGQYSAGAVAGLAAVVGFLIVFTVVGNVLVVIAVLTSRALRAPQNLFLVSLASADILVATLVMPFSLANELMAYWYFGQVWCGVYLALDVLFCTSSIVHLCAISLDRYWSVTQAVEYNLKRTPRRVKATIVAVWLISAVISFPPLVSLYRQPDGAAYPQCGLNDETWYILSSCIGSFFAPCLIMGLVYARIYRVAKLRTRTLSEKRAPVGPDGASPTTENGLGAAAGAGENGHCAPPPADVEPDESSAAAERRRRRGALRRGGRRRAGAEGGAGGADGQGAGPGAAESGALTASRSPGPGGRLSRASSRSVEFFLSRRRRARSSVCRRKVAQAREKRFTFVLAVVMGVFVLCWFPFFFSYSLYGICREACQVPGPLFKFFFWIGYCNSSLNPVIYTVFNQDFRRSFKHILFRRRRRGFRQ
# Sequence of Proteinase-activated receptor 1 (Homo sapiens) (P25116 whole entry): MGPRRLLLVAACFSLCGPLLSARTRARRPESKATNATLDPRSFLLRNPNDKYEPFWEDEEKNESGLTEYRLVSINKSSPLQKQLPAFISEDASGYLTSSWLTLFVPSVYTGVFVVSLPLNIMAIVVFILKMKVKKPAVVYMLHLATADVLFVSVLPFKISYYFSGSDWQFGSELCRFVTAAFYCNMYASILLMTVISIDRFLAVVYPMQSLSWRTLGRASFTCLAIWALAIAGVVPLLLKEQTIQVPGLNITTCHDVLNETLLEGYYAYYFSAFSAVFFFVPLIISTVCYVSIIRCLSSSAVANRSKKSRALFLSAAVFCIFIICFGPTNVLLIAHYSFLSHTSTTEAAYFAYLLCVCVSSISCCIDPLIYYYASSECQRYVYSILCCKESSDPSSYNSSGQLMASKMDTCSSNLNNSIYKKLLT
# Sequence of Tyrosine-protein kinase ABL1 (Homo sapiens), P00519 [F317I] (P00519 whole entry F317I): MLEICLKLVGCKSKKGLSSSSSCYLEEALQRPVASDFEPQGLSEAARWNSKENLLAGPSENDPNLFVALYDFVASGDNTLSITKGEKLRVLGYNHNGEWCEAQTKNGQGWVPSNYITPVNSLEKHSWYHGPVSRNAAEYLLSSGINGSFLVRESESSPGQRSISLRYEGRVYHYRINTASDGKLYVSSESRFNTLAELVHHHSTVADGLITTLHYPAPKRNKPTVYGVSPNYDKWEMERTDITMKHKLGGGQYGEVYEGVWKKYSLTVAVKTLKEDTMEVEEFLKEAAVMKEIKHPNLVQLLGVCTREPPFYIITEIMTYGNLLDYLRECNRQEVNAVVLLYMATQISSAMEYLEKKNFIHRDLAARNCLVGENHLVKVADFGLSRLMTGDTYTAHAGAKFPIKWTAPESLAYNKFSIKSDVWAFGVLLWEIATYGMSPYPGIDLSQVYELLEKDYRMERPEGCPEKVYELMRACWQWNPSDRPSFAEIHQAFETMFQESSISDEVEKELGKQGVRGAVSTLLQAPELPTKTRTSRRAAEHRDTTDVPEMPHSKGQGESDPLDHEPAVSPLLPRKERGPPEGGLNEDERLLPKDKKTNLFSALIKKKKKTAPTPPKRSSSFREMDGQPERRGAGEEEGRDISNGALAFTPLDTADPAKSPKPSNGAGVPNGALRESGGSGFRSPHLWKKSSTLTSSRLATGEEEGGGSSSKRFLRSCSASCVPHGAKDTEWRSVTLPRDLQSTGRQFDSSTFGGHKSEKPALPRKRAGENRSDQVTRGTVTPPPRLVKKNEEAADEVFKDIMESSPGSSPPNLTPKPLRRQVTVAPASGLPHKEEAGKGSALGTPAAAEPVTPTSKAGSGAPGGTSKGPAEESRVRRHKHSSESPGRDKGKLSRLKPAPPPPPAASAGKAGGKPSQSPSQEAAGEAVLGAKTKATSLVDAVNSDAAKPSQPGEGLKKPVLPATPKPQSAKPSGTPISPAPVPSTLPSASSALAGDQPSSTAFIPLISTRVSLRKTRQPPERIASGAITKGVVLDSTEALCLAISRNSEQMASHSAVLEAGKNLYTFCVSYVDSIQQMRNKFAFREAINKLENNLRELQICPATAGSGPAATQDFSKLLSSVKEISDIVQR
# Sequence of 5-hydroxytryptamine receptor 1A (Homo sapiens) (P08908 whole entry): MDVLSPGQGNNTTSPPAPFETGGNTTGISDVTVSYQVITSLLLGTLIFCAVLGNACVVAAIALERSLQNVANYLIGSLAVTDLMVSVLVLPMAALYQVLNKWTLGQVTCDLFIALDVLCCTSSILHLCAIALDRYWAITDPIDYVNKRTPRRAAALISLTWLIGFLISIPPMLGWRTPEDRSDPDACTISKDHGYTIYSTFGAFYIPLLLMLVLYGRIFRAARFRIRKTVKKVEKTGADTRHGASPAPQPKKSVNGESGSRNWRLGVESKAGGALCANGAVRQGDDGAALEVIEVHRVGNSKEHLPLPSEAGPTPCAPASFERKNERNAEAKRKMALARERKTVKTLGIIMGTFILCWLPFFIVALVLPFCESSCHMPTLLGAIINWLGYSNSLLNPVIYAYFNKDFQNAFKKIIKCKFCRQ
# Sequence of Beta-1 adrenergic receptor (Homo sapiens) (P08588 whole entry, looked up): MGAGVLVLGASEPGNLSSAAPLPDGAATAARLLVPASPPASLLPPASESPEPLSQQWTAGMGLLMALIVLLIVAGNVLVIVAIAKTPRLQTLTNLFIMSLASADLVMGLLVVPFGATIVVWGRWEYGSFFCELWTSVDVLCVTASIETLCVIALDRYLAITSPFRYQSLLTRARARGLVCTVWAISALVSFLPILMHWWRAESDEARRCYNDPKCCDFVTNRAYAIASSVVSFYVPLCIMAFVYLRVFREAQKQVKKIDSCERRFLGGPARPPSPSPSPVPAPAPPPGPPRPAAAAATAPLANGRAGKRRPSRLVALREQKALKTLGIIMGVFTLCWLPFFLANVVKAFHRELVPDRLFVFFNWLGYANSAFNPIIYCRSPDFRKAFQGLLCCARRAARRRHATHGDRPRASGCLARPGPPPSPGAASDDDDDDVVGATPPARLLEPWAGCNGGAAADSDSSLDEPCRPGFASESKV
# Sequence of Caspase-2 (Homo sapiens) (P42575 170-325 limits assumed): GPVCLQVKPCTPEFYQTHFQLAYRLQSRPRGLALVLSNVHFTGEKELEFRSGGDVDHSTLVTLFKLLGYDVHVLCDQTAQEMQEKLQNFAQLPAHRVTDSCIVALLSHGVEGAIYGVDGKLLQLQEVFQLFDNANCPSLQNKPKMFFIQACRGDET
# Sequence of Caspase-2 (Homo sapiens) (P42575 334-452 limits assumed): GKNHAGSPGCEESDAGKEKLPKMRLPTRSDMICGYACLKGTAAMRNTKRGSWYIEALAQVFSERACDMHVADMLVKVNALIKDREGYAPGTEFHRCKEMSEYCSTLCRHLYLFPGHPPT
# Sequence of Caspase-8 (Homo sapiens) (Q14790 217-374 limits assumed): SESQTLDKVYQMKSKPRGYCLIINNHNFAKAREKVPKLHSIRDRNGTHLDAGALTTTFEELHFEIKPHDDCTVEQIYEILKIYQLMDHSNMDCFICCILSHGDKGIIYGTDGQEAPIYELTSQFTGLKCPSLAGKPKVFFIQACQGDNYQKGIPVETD
# Sequence of Caspase-8 (Homo sapiens) (Q14790 385-479 limits assumed): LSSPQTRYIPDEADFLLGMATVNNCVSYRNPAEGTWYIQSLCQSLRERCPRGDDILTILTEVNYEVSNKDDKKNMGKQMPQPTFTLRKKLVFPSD
# Sequence of Beta-3 adrenergic receptor (P13945 whole entry): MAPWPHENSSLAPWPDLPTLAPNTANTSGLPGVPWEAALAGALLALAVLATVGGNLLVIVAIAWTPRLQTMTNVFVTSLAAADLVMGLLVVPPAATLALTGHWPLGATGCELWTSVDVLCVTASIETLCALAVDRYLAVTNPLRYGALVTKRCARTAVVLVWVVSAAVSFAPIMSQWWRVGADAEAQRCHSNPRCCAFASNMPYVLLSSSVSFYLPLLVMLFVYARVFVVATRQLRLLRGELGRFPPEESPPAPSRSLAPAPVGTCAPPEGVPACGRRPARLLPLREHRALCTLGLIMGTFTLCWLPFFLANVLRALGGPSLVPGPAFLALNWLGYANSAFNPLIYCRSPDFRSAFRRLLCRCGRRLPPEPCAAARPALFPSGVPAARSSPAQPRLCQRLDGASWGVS
# Sequence of 72 kDa type IV collagenase (Homo sapiens) (P08253 110-660 limits assumed): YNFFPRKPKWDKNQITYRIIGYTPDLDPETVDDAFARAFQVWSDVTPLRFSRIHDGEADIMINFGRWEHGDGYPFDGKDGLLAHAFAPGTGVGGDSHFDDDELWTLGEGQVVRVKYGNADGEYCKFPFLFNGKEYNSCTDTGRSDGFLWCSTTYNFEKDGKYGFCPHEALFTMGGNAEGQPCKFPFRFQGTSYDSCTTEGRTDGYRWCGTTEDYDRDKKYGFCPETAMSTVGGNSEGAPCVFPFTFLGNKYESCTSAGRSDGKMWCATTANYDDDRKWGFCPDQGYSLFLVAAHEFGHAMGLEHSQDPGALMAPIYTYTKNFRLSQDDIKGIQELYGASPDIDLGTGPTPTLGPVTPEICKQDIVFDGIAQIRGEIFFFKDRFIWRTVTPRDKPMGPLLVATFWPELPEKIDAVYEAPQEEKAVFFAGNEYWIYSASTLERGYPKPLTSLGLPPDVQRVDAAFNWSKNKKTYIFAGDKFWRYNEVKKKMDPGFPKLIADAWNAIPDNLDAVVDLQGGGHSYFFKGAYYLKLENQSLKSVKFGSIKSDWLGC
smiles,measurement,setting,value
COc1ccc2c(O[C@@H]3C[C@H]4C(=O)N[C@]5(C(=O)O)CC5/C=C\CCCCC[C@H](NC(=O)OC5CCCC5)C(=O)N4C3)cc(-c3csc(NC(=O)C(C)C)n3)nc2c1C (stereo not given in full) [BI 1230],Ki,[1]; read-out: Ki,3.29 µM
same,Ki,[1]; read-out: pKi (converted),3.24 µM
same,inhibition,[2],3.15%
same,% Inhibition of Control Values,[3],73.8%
same,% Inhibition of Control Values,[4],2.6%
same,Ki,[5],3.62 µM
same,% Inhibition of Control Values,Caspase-3 (Homo sapiens),23.8%
same,% Inhibition of Control Values,[6],281%
same,% Inhibition of Control Values,[7],16.1%
same,% Inhibition of Control Values,[8],4%
same,% Inhibition of Control Values,[9],-16.8%
same,% Inhibition of Control Values,[10],3.5%
same,% Inhibition of Control Values,Caspase-6 (Homo sapiens),10.3%
same,% Inhibition of Control Values,[11],54.8%
same,% Inhibition of Control Values,[12],13.6%
same,% Inhibition of Control Values,[13],12.3%
same,% Inhibition of Control Values,Chymase (Homo sapiens),21.2%
same,% Inhibition of Control Values,[14],90.6%
same,% Inhibition of Control Values,Caspase-8 (Homo sapiens),-6.2%
same,% Inhibition of Control Values,[15],125%
same,% Inhibition of Control Values,Caspase-2 (Homo sapiens),44.5%
same,% Inhibition of Control Agonist Response,[16],59.6%
same,% of Control Agonist Response,[16],-0.9%
same,inhibition,[17],18.1%
same,% Inhibition of Control Values,[18],63%
same,Ki,[19],4.49 µM
same,% Inhibition of Control Values,[20],48.2%
same,% Inhibition of Control Values,Caspase-7 (Homo sapiens),40.6%
same,% Inhibition of Control Values,[21],63.7%
same,% Inhibition of Control Values,[22],-8.1%
same,inhibition,[23],2.05%
same,% Inhibition of Control Values,Tryptase (Homo sapiens),6.9%
same,inhibition,[24],20.5%
same,% Inhibition of Control Values,Trypsin (Homo sapiens),29.8%
same,% Inhibition of Control Values,[25],-2.2%
same,inhibition,[26],-6.16%
same,residual activity,[27],90%
same,inhibition,[28],4.88%
same,% Inhibition of Control Values,[29],27%
same,% Inhibition of Control Values,[30],59.2%
same,% Inhibition of Control Values,[31],-54.7%
same,% Inhibition of Control Values,[32],9.7%
same,% Inhibition of Control Values,[33],38.2%
O=C(N[C@H]1CCCCC/C=C\C2C[C@@]2(C(=O)O)NC(=O)[C@@H]2C[C@@H](Oc3ccncc3)CN2C1=O)OC1CCCC1 (stereo not given in full) [BI 1675],inhibition,[34],-8.48%
same,inhibition,[35],-7.71%
same,inhibition,[36],-5.88%
same,residual activity,[27],100%
same,inhibition,[37],7.99%
same,inhibition,[38],2.64%
same,inhibition,[39],-7.2%
